# Results as given in US20100286260A1, “MILNACIPRAN FORMULATIONS” (priority 2009, published 2010).
# Legend:
# [1] = Conversion to cyclic degradation product F1612 in 0.1 M pH 9.0 buffer at 50° C.; type: physicochemical; conditions: 50° C. and pH 9.0
# Experimental: Milnacipran hydrochloride was exposed to 0.1 M pH 9.0 buffer (glycine-NaOH) at 50° C. in a closed glass flask for several days.
# [2] = type: physicochemical
# Description: (§1) Milnacipran can be easily processed in solvent state with conventional binder such as Povidone. However, in aqueous state the milnacipran has some unusual properties which present difficulties in drug layering approach. […] In exemplary embodiments, the PEG functions as a co-binder, anti-tacking agent, plasticizer to HPMC and as an eraser to the drug's deliquescent property.
# Deliquescence = type: physicochemical; conditions: room temperature
# Description: as §1
# uptake of dopamine = conditions: cited from earlier work
smiles,measurement,setting,value
"CCN(CC)C(=O)C1(c2ccccc2)CC1CN (stereo not shown) [Milnacipran, milnacipran]",formation of the cyclic degradation product,[1],rapid formation
same,solubility in water,[2],highly soluble
same,deliquescent at RH,Deliquescence,75-80 % RH
same,effect on the uptake of dopamine,uptake of dopamine,does not affect
